The text below walks through data of patent US20070066526A1, “Method for reducing risk of and extent of injury due to stroke in hypertensive subjects” (priority 2005, published 2007).

The test system of assay [1] is δPKC. The conditions noted are these: normotensive animals, sustained delivery; cited from earlier work.
Assay [2] has as its system hypertensive Dahl salt-sensitive rats. Description: Middle cerebral artery occlusion, infarct size by TTC staining in hypertensive Dahl rats. Type of assay: in vivo, rat.
For the next assay, the system named is Dahl salt-sensitive rats. As to the kind of experiment: Laser Doppler flowmetry of cerebral blood flow in hypertensive Dahl rats. The conditions noted are these: 11 weeks old, intraperitoneal injection 0.2 mg/kg, 25 min post-treatment vs baseline, mean±SEM.
Another assay addresses T1, εPKC (Rattus norvegicus, UniProt P09216).
T1 sequence (P09216 1-737): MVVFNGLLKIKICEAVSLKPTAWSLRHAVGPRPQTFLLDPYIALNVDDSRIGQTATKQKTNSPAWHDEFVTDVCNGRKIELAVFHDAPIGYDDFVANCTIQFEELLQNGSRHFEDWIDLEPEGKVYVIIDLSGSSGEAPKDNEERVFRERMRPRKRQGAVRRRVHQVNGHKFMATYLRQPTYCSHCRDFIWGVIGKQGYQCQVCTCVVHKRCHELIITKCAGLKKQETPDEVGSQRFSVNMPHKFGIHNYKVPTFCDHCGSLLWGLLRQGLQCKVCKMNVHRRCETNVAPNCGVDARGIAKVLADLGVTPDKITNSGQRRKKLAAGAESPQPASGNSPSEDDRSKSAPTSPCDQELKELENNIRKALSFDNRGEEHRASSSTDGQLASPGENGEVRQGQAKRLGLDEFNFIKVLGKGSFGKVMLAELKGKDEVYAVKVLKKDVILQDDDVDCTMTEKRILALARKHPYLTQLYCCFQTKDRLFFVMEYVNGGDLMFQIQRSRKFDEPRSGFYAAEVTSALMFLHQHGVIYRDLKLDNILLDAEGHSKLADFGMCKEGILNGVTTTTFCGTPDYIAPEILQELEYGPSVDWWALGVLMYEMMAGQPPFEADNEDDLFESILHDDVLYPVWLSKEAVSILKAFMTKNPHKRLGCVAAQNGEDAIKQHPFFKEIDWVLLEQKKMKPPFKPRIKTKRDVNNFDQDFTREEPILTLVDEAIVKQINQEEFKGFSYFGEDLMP
Description: Western blot of εPKC translocation in brain of Dahl hypertensive rats. Particulars: sustained subcutaneous pump delivery, same blot reprobed. (Immunoblotting shows a protein as a band on a membrane.)

The target of assay [3] is δPKC (Rattus norvegicus, UniProt P09215). As to the kind of experiment: Western blot of δPKC translocation (soluble to membrane fraction) in brain of Dahl hypertensive rats. The conditions noted are these: sustained subcutaneous pump delivery 4-6 weeks, n=3.
Sequence of δPKC (Rattus norvegicus, UniProt P09215) (P09215 whole entry): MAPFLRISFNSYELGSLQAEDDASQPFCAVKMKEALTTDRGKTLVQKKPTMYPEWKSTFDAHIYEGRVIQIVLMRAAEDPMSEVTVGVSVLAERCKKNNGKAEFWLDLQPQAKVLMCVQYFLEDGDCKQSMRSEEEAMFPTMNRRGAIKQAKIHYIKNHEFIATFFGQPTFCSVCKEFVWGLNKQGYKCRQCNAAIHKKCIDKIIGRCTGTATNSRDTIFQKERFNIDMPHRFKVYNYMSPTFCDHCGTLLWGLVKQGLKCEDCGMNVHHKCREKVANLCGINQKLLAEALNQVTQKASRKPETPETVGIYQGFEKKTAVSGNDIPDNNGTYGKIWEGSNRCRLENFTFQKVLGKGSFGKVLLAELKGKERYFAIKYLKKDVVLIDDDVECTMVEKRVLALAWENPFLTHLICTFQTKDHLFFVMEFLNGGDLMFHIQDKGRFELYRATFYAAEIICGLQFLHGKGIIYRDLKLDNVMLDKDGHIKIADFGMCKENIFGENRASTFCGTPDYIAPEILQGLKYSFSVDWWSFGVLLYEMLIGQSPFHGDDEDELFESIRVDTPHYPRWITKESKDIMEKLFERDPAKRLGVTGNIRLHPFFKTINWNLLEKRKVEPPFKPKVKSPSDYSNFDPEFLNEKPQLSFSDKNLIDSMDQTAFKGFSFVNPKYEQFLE
Description: Dahl rats were implanted with pumps for subcutaneous delivering δV1-1-Tat or Tat control peptide for 4-6 weeks. δPKC activity in brain samples was assessed by determining the translocation of the enzyme from the soluble, cytosolic fraction, to the membrane-bound fraction, a standard marker for PKC activation (Kraft, A. S. et al., Nature, 301:621-3 (1983)).
The density of the bands was measured to assess PKC translocation, as a measure of δPKC activation.
Brains from Dahl hypertensive rats that received δV1-1-Tat or Tat peptide delivery for 4 weeks, starting at 11 weeks of age, were quickly isolated and frozen. Tissue fractionation was performed to collect soluble (cytosolic) and particulate (membrane) fractions, as previously described (Johnson, J. A. et al., Life Sci., 57:1027-38(1995)). 5 μg of protein from each fraction was used forwestern blot analysis using a rabbit anti-phospho-serine 643 δPKC antibody (Santa Cruz Biotechnology; 1:500) followed with an anti-rabbit secondary antibody (Amersham). Density of δPKC bands was measured to assess translocation of PKC from the cytosol to membrane fractions, a measure of activation (Kraft, A. S. et al., Nature, 301:621-3 (1983)). Blots were then reprobed with a rabbit anti-δPKC antibody (Santa Cruz Biotechnology; 1:500), to assess translocation of the δPKC isozyme. Statistical analysis was performed using students t-test.

In the case of “SFNSYELGSL (listed as Rattus norvegicus) [δV1-1]”, the “δPKC activity in the brain” value with δPKC [1] is listed as “inhibits δPKC activity”. Also, the “reduction of infarct size compared with Tat controls” value in assay [2] (90 min MCA occlusion, 24 h reperfusion, chronic subcutaneous pump delivery, animals without hemorrhage) is given as 25%. For the same sequence, in assay [2] (90 min MCA occlusion, 24 h reperfusion, chronic subcutaneous pump delivery, animals without hemorrhage, n=6-7 per group), the “infarct size (relative stroke area)” value turned out to be 30±4%. Moreover, in the assay with Dahl salt-sensitive rats, the “change in cerebral blood flow from baseline” value came to 12%.

For YGRKKRRQRRR [Tat], the “εPKC activation, percent translocation” value with εPKC was 46±5 % translocation. Besides, the “δPKC activation, percent translocation” value with δPKC [3] was found to be 49±1 % translocation. Besides, in assay [2] (rat, in vivo, sc), the “infarct size (relative stroke area)” value is on record as 39±3%. Moreover, the “change in cerebral blood flow from baseline” value in the assay with Dahl salt-sensitive rats was −5±9%.
